Data reported in patent publication US11633416B1, “Oral formulations of CD73 compounds” (ARCUS BIOSCIENCES, INC., priority 2020, dated 2023).
Like-named read-outs stand apart in the source and are kept apart here.

Test: Oral exposure in cynomolgus monkeys, compound alone or with excipient in capsules; plasma by LC-MS/MS
Type: in vivo
Details: enteric capsule; for MRT inf: read-out: MRT0-∞
Source text: The influence of different excipients on the bioavailability of Compound (Ia), Compound 2 and Compound 3 in cynomolgus monkeys was investigated. The excipients tested were sodium phytate, sodium citrate, sodium EDTA, cyclodextrin, sodium taurocholate, sodium polystyrene sulfate, sodium caprate, sodium phosphate, carbomer 971P and palmitoyl carnitine chloride. Generally, an appropriate quantity (as indicated in Table 1) of Compound (Ia), Compound 2 or Compound 3 and an excipient were mixed to homogeneity and transferred to capsules for dosing. In one example, Compound (Ia) (500 mg assay, 1.063 correction factor applied for to account for purity) and 2.75 g of sodium phytate (Sigma) were combined in a mortar and pestle. The mixture was ground to homogeneity then 530 mg of the white powder was transferred to enteric capsules (Size 0) prior to dosing.
[…] Compound (Ia), Compound 2 or Compound 3, either alone, or with excipient, in an enteric capsule was administered via an oral pet piller. Blood samples were collected from a peripheral vessel at designated time points, and centrifuged to obtain plasma.
Plasma samples obtained at each time point from the subjects were prepared by protein precipitation. An aliquot of 50 μL sample was added with 150 μL acetonitrile containing an internal standard ([[[(2R,3S,4R,5R)-5-[6-chloro-4-[[(1S)-2,2,2-trideuterio-1-(2-fluorophenyl)ethyl]amino]pyrazolo[3,4-b]pyridin-1-yl]-3,4-dihydroxyoxolan-2-yl]-dideuteriomethoxy]-hydroxyphosphoryl]methylphosphonic acid, 200 ng/mL in Acetonitrile). The mixture was vortexed for 15 min and then centrifuged at 4500 rpm for 15 min at 4° C. (Sorvall Legend XTR centrifuge, Thermo Scientific, Langenselbold, Germany). 80 μL of the resulting supernatant was transferred into a new plate and mixed with 160 μL water followed by LC-MS/MS analysis.
• API 4000 mass spectrometer (Applied Biosystems, Foster City, Calif.) • Shimadzu Nexera X^2 UHPLC System (Shimadzu Scientific Instruments, Canby, Oreg.) Column: SHISEIDO CAPCELL PAK INERT ADME S3 (2.00 mm×50 mm, Part No. 79001) Mobile Phase A: 8.6 mM Triethylamine, 100 mM HFIP (1,1,1,3,3,3-Hexafluoro-2-propanol) in Water Mobile Phase B: 8.6 mM Triethylamine, and 100 mM HFIP in [Acetonitrile:water (95:5, v/v) Needle wash (weak & strong): Acetone:MeCN:Water (80:20:20, v/v/v) Flow Rate: 0.50 mL/min HPLC Gradient:
• Ionization Mode: Electrospray (ESI) • Detection Mode: Negative MRM (Q1/Q3 transitions: m/z 579.0/157.0 for Compound (Ia) or Compound 3; m/z 584.0/157.0 for Internal Standard); (Q1/Q3 transitions m/z 562.2/157.0 for Compound 2; m/z 584.0/157.0 for Internal Standard)

[1] = male, cynomolgus monkey, plasma, po, 50 mg, Table 2: oral, dose 50 mg, + 275 mg sodium phytate
[2] = male, cynomolgus monkey, plasma, po, 50 mg, Table 2: oral, dose 50 mg, neat
[3] = oral, dose 50 mg, with 275 mg sodium phytate (Sigma-Aldrich, ≥5 mol sodium/mol), fasted

With C[C@H](Nc1cc(Cl)nc2c1cnn2[C@@H]1O[C@H](COP(=O)(O)CP(=O)(O)O)[C@@H](O)[C@H]1O)c1ccccc1F [Ia (•3Na), (((((2R,3S,4R,5R)-5-(6-chloro-4-(((S)-1-(2-fluorophenyl)ethyl)amino)-1H-pyrazolo[3,4-b]pyridin-1-yl)-3,4-dihydroxytetrahydrofuran-2-yl)methoxy)(hydroxy)phosphoryl)methyl)phosphonic acid] the “Exposure Enhancement” value (Table 2: oral, dose 50 mg, + 275 mg sodium phytate versus neat) was 9.1-fold, the AUC(0-inf) (male, cynomolgus monkey, plasma, po, 10 mg, with 195 mg sodium citrate, 6 mg SDS, fasted) was 1940 ng·h/mL and the Cmax (male, cynomolgus monkey, plasma, po, 10 mg, oral, dose 10 mg, with 195 mg sodium citrate, 6 mg SDS, fasted, read-out: Cmax) was 286 ng/mL. It also gave an AUC(0-inf) [1] of 122000 ng·h/mL, an AUC(0-t) [1] of 88000 ng·h/mL and a Tmax [1] of 3 h. For the same compound, the Cmax (male, cynomolgus monkey, plasma, po, 50 mg, Table 2: oral, dose 50 mg, + 275 mg sodium phytate, read-out: Cmax) was 3680 ng/mL, the MRT inf [1] was 35.8 h and the AUC(0-inf) [2] was 13400 ng·h/mL. The AUC(0-t) [2] was 10300 ng·h/mL, the Tmax [2] was 1.75 h and the Cmax (male, cynomolgus monkey, plasma, po, 50 mg, Table 2: oral, dose 50 mg, neat, read-out: Cmax) was 631 ng/mL. The MRT inf [2] was 29.2 h, the AUC(0-inf) (male, cynomolgus monkey, plasma, po, 50 mg, neat, fasted) was 13400 ng·h/mL and the AUC(0-inf) (male, cynomolgus monkey, plasma, po, 50 mg, with 25 mg sodium taurocholate, fasted) was 9300 ng·h/mL. For the same compound, the AUC(0-inf) (male, cynomolgus monkey, plasma, po, 50 mg, with 50 mg sodium phytate (Sigma-Aldrich), fasted) was 59700 ng·h/mL, the AUC(0-inf) (male, cynomolgus monkey, plasma, po, 50 mg, with 100 mg Na-EDTA, fasted) was 154000 ng·h/mL and the AUC(0-inf) (male, cynomolgus monkey, plasma, po, 50 mg, with 100 mg cyclodextrin, fasted) was 8230 ng·h/mL. The AUC(0-inf) (male, cynomolgus monkey, plasma, po, 50 mg, with 100 mg palmitoyl carnitine chloride, fasted) was 43400 ng·h/mL, the AUC(0-inf) (male, cynomolgus monkey, plasma, po, 50 mg, with 195 mg sodium citrate, 3 mg SDS, fasted) was 22200 ng·h/mL and the AUC(0-inf) (male, cynomolgus monkey, plasma, po, 50 mg, with 195 mg sodium citrate, 6 mg SDS, non-fasted animal) was 16500 ng·h/mL. The AUC(0-inf) (male, cynomolgus monkey, plasma, po, 50 mg, with 195 mg sodium citrate, 6 mg sodium dodecyl sulfate (SDS), fasted) was 38300 ng·h/mL, the AUC(0-inf) (male, cynomolgus monkey, plasma, po, 50 mg, with 227.5 mg sodium caprate, fasted) was 20300 ng·h/mL and the AUC(0-inf) (male, cynomolgus monkey, plasma, po, 50 mg, with 275 mg sodium phytate (Sigma-Aldrich, ≥5 mol sodium/mol), fasted) was 109000 ng·h/mL. It also gave an AUC(0-inf) (male, cynomolgus monkey, plasma, po, 50 mg, with 275 mg sodium phytate, dodecasodium, fasted) of 69400 ng·h/mL, an AUC(0-inf) (male, cynomolgus monkey, plasma, po, 50 mg, with 275 mg sodium phytate, hexasodium, fasted) of 152000 ng·h/mL and an AUC(0-inf) (male, cynomolgus monkey, plasma, po, 50 mg, with 325 mg sodium polystyrene sulfate, fasted) of 41400 ng·h/mL. The AUC(0-inf) (male, cynomolgus monkey, plasma, po, 50 mg, with 400 mg sodium phosphate, fasted) was 20500 ng·h/mL, the AUC(0-inf) (male, cynomolgus monkey, plasma, po, 50 mg, with 7% w/w carbomer 971P, fasted) was 41300 ng·h/mL and the Cmax (male, cynomolgus monkey, plasma, po, 50 mg, oral, dose 50 mg, neat, fasted, read-out: Cmax) was 631 ng/mL. For the same compound, the Cmax (male, cynomolgus monkey, plasma, po, 50 mg, oral, dose 50 mg, with 25 mg sodium taurocholate, fasted, read-out: Cmax) was 455 ng/mL, the Cmax (male, cynomolgus monkey, plasma, po, 50 mg, oral, dose 50 mg, with 50 mg sodium phytate (Sigma-Aldrich), fasted, read-out: Cmax) was 1650 ng/mL and the Cmax (male, cynomolgus monkey, plasma, po, 50 mg, oral, dose 50 mg, with 100 mg Na-EDTA, fasted, read-out: Cmax) was 6840 ng/mL. It also gave a Cmax (male, cynomolgus monkey, plasma, po, 50 mg, oral, dose 50 mg, with 100 mg cyclodextrin, fasted, read-out: Cmax) of 526 ng/mL, a Cmax (male, cynomolgus monkey, plasma, po, 50 mg, oral, dose 50 mg, with 100 mg palmitoyl carnitine chloride, fasted, read-out: Cmax) of 3660 ng/mL and a Cmax (male, cynomolgus monkey, plasma, po, 50 mg, oral, dose 50 mg, with 195 mg sodium citrate, 3 mg SDS, fasted, read-out: Cmax) of 922 ng/mL. It also gave a Cmax (male, cynomolgus monkey, plasma, po, 50 mg, oral, dose 50 mg, with 195 mg sodium citrate, 6 mg SDS, non-fasted animal, read-out: Cmax) of 863 ng/mL, a Cmax (male, cynomolgus monkey, plasma, po, 50 mg, oral, dose 50 mg, with 195 mg sodium citrate, 6 mg sodium dodecyl sulfate (SDS), fasted, read-out: Cmax) of 1520 ng/mL and a Cmax (male, cynomolgus monkey, plasma, po, 50 mg, oral, dose 50 mg, with 227.5 mg sodium caprate, fasted, read-out: Cmax) of 912 ng/mL. The Cmax (male, cynomolgus monkey, plasma, po, 50 mg, oral, dose 50 mg, with 275 mg sodium phytate (Sigma-Aldrich, ≥5 mol sodium/mol), fasted, read-out: Cmax) was 3570 ng/mL, the Cmax (male, cynomolgus monkey, plasma, po, 50 mg, oral, dose 50 mg, with 275 mg sodium phytate, dodecasodium, fasted, read-out: Cmax) was 2970 ng/mL and the Cmax (male, cynomolgus monkey, plasma, po, 50 mg, oral, dose 50 mg, with 275 mg sodium phytate, hexasodium, fasted, read-out: Cmax) was 4440 ng/mL. The Cmax (male, cynomolgus monkey, plasma, po, 50 mg, oral, dose 50 mg, with 325 mg sodium polystyrene sulfate, fasted, read-out: Cmax) was 1420 ng/mL, the Cmax (male, cynomolgus monkey, plasma, po, 50 mg, oral, dose 50 mg, with 400 mg sodium phosphate, fasted, read-out: Cmax) was 700 ng/mL and the Cmax (male, cynomolgus monkey, plasma, po, 50 mg, oral, dose 50 mg, with 7% w/w carbomer 971P, fasted, read-out: Cmax) was 1480 ng/mL. The AUC(0-inf) (male, cynomolgus monkey, plasma, po, 100 mg, with 275 mg sodium phytate (Sigma-Aldrich), fasted) was 237000 ng·h/mL, the Cmax (male, cynomolgus monkey, plasma, po, 100 mg, oral, dose 100 mg, with 275 mg sodium phytate (Sigma-Aldrich), fasted, read-out: Cmax) was 5760 ng/mL and the “Exposure Enhancement” value (oral, dose 50 mg, with 50 mg sodium phytate (Sigma-Aldrich), relative to 50 mg Ia ( 3Na) without absorption enhancer) was 4.5-fold^b. The “Exposure Enhancement” value (oral, dose 50 mg, with 100 mg Na-EDTA, relative to 50 mg Ia ( 3Na) without absorption enhancer) was 11.5-fold^b, the “Exposure Enhancement” value (oral, dose 50 mg, with 100 mg palmitoyl carnitine chloride, relative to 50 mg Ia ( 3Na) without absorption enhancer) was 3.2-fold^b and the “Exposure Enhancement” value (oral, dose 50 mg, with 195 mg sodium citrate, 3 mg SDS, relative to 50 mg Ia ( 3Na) neat) was 1.7-fold. The “Exposure Enhancement” value (oral, dose 50 mg, with 195 mg sodium citrate, 6 mg SDS, non-fasted animal, relative to 50 mg Ia ( 3Na) without absorption enhancer) was 1.2-fold^b, the “Exposure Enhancement” value (oral, dose 50 mg, with 195 mg sodium citrate, 6 mg SDS, relative to 50 mg Ia ( 3Na) without absorption enhancer) was 2.9-fold^b and the “Exposure Enhancement” value (oral, dose 50 mg, with 227.5 mg sodium caprate, relative to 50 mg Ia ( 3Na) without absorption enhancer) was 1.5-fold^b. For the same compound, the “Exposure Enhancement” value (oral, dose 50 mg, with 275 mg sodium phytate (Sigma-Aldrich), relative to 50 mg Ia ( 3Na) without absorption enhancer) was 9.1-fold^b, the “Exposure Enhancement” value (oral, dose 50 mg, with 275 mg sodium phytate (Sigma-Aldrich), relative to 50 mg Ia ( 3Na) without absorption enhancer, listed as Ia ( 3Na)) was 8.1-fold^b and the “AUC0-∞” value [3] was 122,000 h*ng/mL. For the same compound, the Cmax [3] was 3,680 ng/mL, the “Exposure Enhancement” value (oral, dose 50 mg, with 275 mg sodium phytate, dodecasodium, relative to 50 mg Ia ( 3Na) without absorption enhancer) was 5.2-fold^b and the “Exposure Enhancement” value (oral, dose 50 mg, with 275 mg sodium phytate, hexasodium, relative to 50 mg Ia ( 3Na) without absorption enhancer) was 11.4-fold^b. The “Exposure Enhancement” value (oral, dose 50 mg, with 325 mg sodium polystyrene sulfate, relative to 50 mg Ia ( 3Na) without absorption enhancer) was 3.1-fold^b, the “Exposure Enhancement” value (oral, dose 50 mg, with 400 mg sodium phosphate, relative to 50 mg Ia ( 3Na) without absorption enhancer) was 1.9-fold^b and the “Exposure Enhancement” value (oral, dose 50 mg, with 7% w/w carbomer 971P, relative to 50 mg Ia ( 3Na) without absorption enhancer) was 3.1-fold^b.
